Measured values published in ChEMBL document CHEMBL5137135, “Highly Oxidized Germacranolides from Elephantopus tomentosus and the Configurational Revision of Some Previously Reported Analogues” (J Nat Prod, 2022).
Calls of active or inactive are those of the source. The calls are words filed in the database; no cut-off is given here.

Legend:
Format in all cases: functional, cell-based
HepG2 [1] = assay: Cytotoxicity against human HepG2 cells assessed as inhibition of cell growth by MTT assay
Hep 3B2 [2] = assay: Cytotoxicity against human Hep3B cells assessed as inhibition of cell growth by MTT assay
HepG2 [3] = assay: Induction of apoptosis in human HepG2 cells assessed as membrane blebbing at 1 to 4 uM after 48 hrs by phase contrast microscopic analysis; settings: dose 1-4 µM
Hep 3B2 [4] = assay: Induction of apoptosis in human Hep3B cells assessed as membrane blebbing at 1 to 4 uM after 48 hrs by phase contrast microscopic analysis; settings: dose 1-4 µM
HepG2 [5] = assay: Induction of apoptosis in human HepG2 cells assessed as cellular shrinkage at 1 to 4 uM after 48 hrs by phase contrast microscopic analysis; settings: dose 1-4 µM
Hep 3B2 [6] = assay: Induction of apoptosis in human Hep3B cells assessed as cellular shrinkage at 1 to 4 uM after 48 hrs by phase contrast microscopic analysis; settings: dose 1-4 µM
HepG2 [7] = assay: Induction of apoptosis in human HepG2 cells at 1 to 4 uM after 48 hrs by Hoechst 33258 staining based assay; settings: dose 1-4 µM
Hep 3B2 [8] = assay: Induction of apoptosis in human Hep3B cells at 1 to 4 uM after 48 hrs by Hoechst 33258 staining based assay; settings: dose 1-4 µM
HepG2 [9] = assay: Induction of mitochondrial membrane potential loss in human HepG2 cells by JC-1 staining based fluorescence assay
Hep 3B2 [10] = assay: Induction of mitochondrial membrane potential loss in human Hep3B cells by JC-1 staining based fluorescence assay

C=C1C[C@H](OC(=O)/C(C)=C/C)[C@H]2C(=C)C(=O)O[C@@H]2[C@@H]2O[C@@](O)(C1)C[C@@]2(C)O showed an IC50 (HepG2 [1]) of 8.7 µM and an IC50 (Hep 3B2 [2]) of 3.1 µM.

For C=C(C)C(=O)O[C@H]1C/C(C)=C\[C@@]2(OC)C=C(C)[C@@H](O2)[C@H]2OC(=O)C(=C)[C@@H]21, the IC50 (HepG2 [1]) was 3.8 µM and the IC50 (Hep 3B2 [2]) was 8.5 µM.

Work on C=C1C(=O)O[C@H]2[C@H]1[C@@H](OC(=O)/C(C)=C/C)C/C(C)=C\[C@@]1(OC)C=C(C)[C@H]2O1 yielded an IC50 (HepG2 [1]) of 9.7 µM and an IC50 (Hep 3B2 [2]) of 5 µM.

For C/C=C(\C)C(=O)O[C@H]1C/C(C)=C\[C@@]2(OC)C=C(C)[C@@H](O2)[C@H]2OC(=O)[C@@H](CO)[C@@H]21, the IC50 (HepG2 [1]) was greater than 10 µM and the IC50 (Hep 3B2 [2]) was greater than 10 µM.

Compound C=C(C)C(=O)O[C@H]1C/C(C)=C\[C@@]2(c3ccc(O)c(O)c3)C=C(C)[C@@H](O2)[C@H]2OC(=O)C(=C)[C@@H]21 has an IC50 (HepG2 [1]) of 5.7 µM and an IC50 (Hep 3B2 [2]) of 3.7 µM.

Compound C=C1C(=O)O[C@H]2[C@H]1[C@@H](OC(=O)/C(C)=C/C)C/C(C)=C\[C@@]1(c3cccc(O)c3O)C=C(C)[C@H]2O1 has an IC50 (HepG2 [1]) of 4.5 µM and an IC50 (Hep 3B2 [2]) of 5.8 µM.

C=C1C[C@H](OC(=O)C(=C)C)[C@H]2C(=C)C(=O)O[C@@H]2[C@@H]2O[C@@](O)(C1)C[C@@]2(C)O gave an IC50 (HepG2 [1]) of 7.3 µM and an IC50 (Hep 3B2 [2]) of 6.6 µM.

C=C(C)C(=O)O[C@H]1C/C(C)=C\[C@@]2(c3cccc(O)c3O)C=C(C)[C@@H](O2)[C@H]2OC(=O)C(=C)[C@@H]21 gave an IC50 (HepG2 [1]) of 4.3 µM and an IC50 (Hep 3B2 [2]) of 5.6 µM.

In the case of C=C1C[C@H](OC(=O)C(=C)C)[C@H]2C(=C)C(=O)O[C@@H]2[C@@H]2O[C@@](OC)(C1)C[C@@]2(C)O, the IC50 (HepG2 [1]) is reported as 8.1 µM and the IC50 (Hep 3B2 [2]) is reported as 2.4 µM.

Work on C=C1C(=O)O[C@H]2[C@H]1[C@@H](OC(=O)/C(C)=C/C)C/C(C)=C\[C@@]1(c3ccc(O)c(O)c3)C=C(C)[C@H]2O1 yielded an IC50 (HepG2 [1]) of 3 µM and an IC50 (Hep 3B2 [2]) of 3.6 µM.

C=C1C[C@H](OC(=O)/C(C)=C/C)[C@H]2C(=C)C(=O)O[C@@H]2[C@@H]2O[C@@](OC)(C1)C[C@@]2(C)O was tested, and the IC50 (HepG2 [1]) was 9.8 µM and the IC50 (Hep 3B2 [2]) was 9.5 µM.

In the case of C=C1C[C@H](OC(=O)/C(C)=C/C)[C@H]2C(=C)C(=O)O[C@@H]2[C@@H]2O[C@](OC)(C=C2C)C1, the IC50 (HepG2 [1]) is reported as 3.8 µM and the IC50 (Hep 3B2 [2]) is reported as 8.5 µM.

With C=C1C[C@H](OC(=O)C(=C)C)[C@H]2C(=C)C(=O)O[C@@H]2[C@@H]2O[C@](OC)(C=C2C)C1 the IC50 (HepG2 [1]) was 2.2 µM, the IC50 (Hep 3B2 [2]) was 2.4 µM and the Activity (HepG2 [3]) was “Active”. For the same compound, the Activity (Hep 3B2 [4]) was “Active”, the Activity (HepG2 [5]) was “Active” and the Activity (Hep 3B2 [6]) was “Active”. The Activity (HepG2 [7]) was “Active”, the Activity (Hep 3B2 [8]) was “Active” and the Activity (HepG2 [9]) was “Active”. For the same compound, the Activity (Hep 3B2 [10]) was “Active”.

Compound C=C(C)C(=O)O[C@H]1C/C(C)=C\[C@@]2(OC)C=C(C)[C@@H](O2)[C@H]2OC(=O)[C@@H](COC)[C@@H]21 has an IC50 (HepG2 [1]) greater than 10 µM and an IC50 (Hep 3B2 [2]) greater than 10 µM.

Work on C/C=C(/C)C(=O)O[C@H]1C/C(C)=C\[C@@]2(OC)C=C(C)[C@@H](O2)[C@H]2OC(=O)[C@@H](COC)[C@@H]21 yielded an IC50 (HepG2 [1]) greater than 10 µM and an IC50 (Hep 3B2 [2]) greater than 10 µM.

C=C1C(=O)O[C@H]2[C@H]1[C@@H](OC(=O)/C(C)=C\C)C/C(C)=C\[C@@]1(OC)C=C(C)[C@H]2O1 showed an IC50 (HepG2 [1]) of 3.5 µM and an IC50 (Hep 3B2 [2]) of 3.8 µM.

For C=C1C[C@H](OC(=O)C(=C)C)[C@H]2C(=C)C(=O)O[C@@H]2[C@@H]2O[C@@](O)(C1)C[C@@]2(C)OC, the IC50 (HepG2 [1]) was 8.5 µM and the IC50 (Hep 3B2 [2]) was 7.5 µM.
